{"source": "patent US20250326866A1", "about": "“TRANSFERRIN RECEPTOR TARGETING PEPTIDE OLIGONUCLEOTIDE COMPLEXES AND METHODS OF USE THEREOF” (Blaze Bioscience, Inc., priority 2021, published 2025)", "tested_on": "CRE-driven luciferase", "assay": "CRE-luciferase reporter mice, in vivo brain luminescence", "details": "4 hours after IP 1.68 mg rolipram and 0.84 mg forskolin given together", "text": "Transgenic mice expressing firefly luciferase under the control of a cyclic AMP response element (CRE) can be used. Under conditions of elevated cyclic AMP (cAMP) or other mechanisms that activate the transcription factor CRE Binding Protein 1 (CREB), cells in these mice can express luciferase, which can be measured in whole animal luminescence instrumentation (IVIS imager) after IV dosage with a luciferin formulated for animal use. Mice can be validated to express the transgene under proper response element control by dosing these mice with forskolin and rolipram, two drugs that stimulate neuronal cAMP production and inhibit its degradation (respectively). […]\nUnder conditions of elevated cyclic AMP (cAMP) or other mechanisms that activate the transcription factor CRE Binding Protein 1 (CREB), cells in these mice express luciferase, which are measured in whole animal luminescence instrumentation (IVIS imager) after IV dosage with a luciferin formulated for animal use. […]\nLuminescence was measured in anesthetized mice on a Xenogen IVIS instrument with a 1 min exposure. […] For the test peptides for comparison, identical regions of interest encompassing the entire brain were draw and quantified using LivingImage software (version 4.0, PerkinElmer, FIG. 16). […]\nTransgenic Mice were first dosed with luciferin and luminescence was measured (“unstimulated”)."}
{"smiles": "COc1ccc(C2CNC(=O)C2)cc1OC1CCCC1", "note": "(stereo not shown) [rolipram]", "values": [{"measurement": "CRE-Luc brain luminescence, positive control", "result": "high levels of luminescence"}]}
